This experiment addresses T1, CCR5 (Homo sapiens, UniProt P51681).
T1 construct: expressed in transfected cells
As to the kind of experiment: Inhibition of CCR5: [35S]GTPγS binding assays (filtration, SPA-WGA) and calcium influx assay, 10 nM RANTES, CHO-CCR5. Format: biochemical. The note with it: for IC50: inhibition of GTPγS binding induced by 10 nM RANTES, CHO-CCR5. As to the method: CCR5 belongs to G-Protein-Coupled Receptor (GPCR) family. The developing technology of GPCR-based drugs have been well-developed, among them, the experimental techniques such as ligand-receptor binding assay, GTPγS binding assay and Ca^2+ flux assay have been widely used in drug-screening related to chemokine receptors. The inhibitory activities of the compounds according to the present invention against CCR5 are measured by three methods, i.e., [^35S]GTPγS filter binding assay, SPA-WGA-based [^35S]GTPγS binding assay and calcium influx assay. At the same time, the antiviral activities in cell of the compounds according to the present invention are evaluated by using two kinds HIV-1 subtypes: H4DA5 cell model and PBMC system virus replication model.
A. [^35S]GTPγS Binding Assay
After binding with an agonist, CCR5 experiences a conformation change such that CCR5 interacts with G protein so as to active the G protein. G protein is a tripolymer composed of α-subunit and βγ-subunit. Since the ability of α-subunit binding to GTP depends on the interaction of CCR5 with the agonist, the ability of an agonist for activating CCR5 can be reflected by determining the amount of GTP binding to α-subunit. In a GTPγS binding assay, a ^35S-labeled GTP analogue GTPγS, which can bind with an activated α-subunit without being hydrolyzed, is used to replace GTP in order for eliminating the defect that the amount of GTP binding to G protein can not exactly reflect the activation of CCR5 due to the hydrolysis of GTO by GTPase and for convenience of detection. So, α-subunit binds with GDP when CCR5 is not activated, and after the activation of CCR5, α-subunit binds with GTPγS such that GTPγS irreversible binds to α-subunit. Therefore, the amount of [^35S]-GTPγS binding to α-subunit could reflect the level of CCR5 activated by an agonist. The ability of the agonist for activating CCR5 will decrease when an antagonist is added.
Such experiment has been referred to as GTPγS filtration assay in which [^35S]-GTPγS bound with the free G protein could be separated by membrane filtration.
Alternatively, SPA (Scintillation Proximity Assay) technique can be used to detect the [^35S]-GTPγS bound to G protein, which is called SPA-WGA-based [35S]GTPγS binding assay. The principle of SPA technique is as follows. Sub-atomic particles released during the decay of radioactive atoms, for example β-ray (electron), can excite microspheres at a sufficiently close distance to emit light so as to be detected by a Scintillation Counter. In an aqueous solution, most of the energy of these rays is absorbed by the solvent, and the traveling distance of these rays is limited.
The activation of G protein by CCR5 is determined by the following experiments.
CHO (Chinese hamster ovary cell) permanent cell line expressing CCR5 (CHO-CCR5) (a cell line constructed by Shanghai Targetdrug Ltd.) was lysed with a lysis buffer (5 mM Tris-HCl, pH 7.5, 5 mM EDTA and 5 mM EGTA) and then centrifugated at 15,000×g for 10 min to obtain cell membrane. After the cell membrane was resuspended in a reaction buffer (5 mM Tris-HCl, pH 7.5, 5 mM MgCl2, 1 mM EGTA, 100 mM NaCl), the protein concentration was determined using Bioford Protein Assay Kit manufactured by Bio-Rad Laboratories Inc. Subsequently, GTPγS binding assay was performed in the reaction buffer, wherein the reaction system was 100 μL containing 10 μg membrane protein, 40 μM GDP and 0.5 nM [^35S]-GTPγS (1200 Ci/mmol). After the compound to be tested (the compound was first dissolved in DMSO and then diluted in gradient with the reaction buffer according to the specific situation, wherein the final concentration of DMSO was 1% (v/v) in the whole reaction system) was added and shaken to mix homogeneously, the reaction tube was incubated at 30° C. for 1 hour. After the reaction finished, the tube was placed on ice, and the reaction mixture was diluted with PBS to quench the reaction and filtered under reduced pressure with a GF/C filter membrane. […]
A general note: GTPγS resists hydrolysis and so accumulates on activated G proteins.

The results in this text go back to US8410094B2, “Amide compounds, their pharmaceutical compositions, their preparation method and their uses” (Shanghai Institute of Materia Medica, Chinese Academy of …, priority 2008, dated 2013).

T1 sequence (P51681 whole entry): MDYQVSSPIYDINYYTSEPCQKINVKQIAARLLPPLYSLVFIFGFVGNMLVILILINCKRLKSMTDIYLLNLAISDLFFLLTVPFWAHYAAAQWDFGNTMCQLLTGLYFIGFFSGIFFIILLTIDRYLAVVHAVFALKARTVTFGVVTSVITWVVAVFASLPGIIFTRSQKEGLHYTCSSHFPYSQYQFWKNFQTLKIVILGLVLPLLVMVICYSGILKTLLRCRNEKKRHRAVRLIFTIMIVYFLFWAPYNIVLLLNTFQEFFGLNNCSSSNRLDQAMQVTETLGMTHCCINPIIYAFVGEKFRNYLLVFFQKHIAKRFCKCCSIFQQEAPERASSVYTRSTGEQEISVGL

For “1-acetyl-N-(3-chloro-4-methylphenyl)-N-(3-(3-exo-(2-(4-(pyrrolidine-1-sulfonyl)phenyl)acetamido)-8-azabicyclo[3.2.1]oct-8-yl)propyl)-4-piperidinylcarboxamide [Compound 7i]”, the IC50 was found to be 2.97 nM.

Take `CC(=O)N1CCC(C(=O)N(CCCN2C3CCC2CC(NC(=O)Cc2ccccc2)C3)c2ccc(C)c(Cl)c2)CC1` (stereo not drawn) [Compound 7a, 1-acetyl-N-(3-chloro-4-methylphenyl)-N-(3-(3-exo-(2-phenylacetamido)-8-azabicyclo[3.2.1]oct-8-yl)propyl)-4-piperidinylcarboxamide]: under “read-out: inhibition against CCR5 @30 nM”, the inhibition at 0.03 µM came out at 26.2%. For the same compound, the inhibition at 0.3 µM (read-out: inhibition against CCR5 @300 nM) was found to be 64.6%. For `CC(=O)N1CCC(C(=O)N(CCCN2[C@@H]3CC[C@H]2C[C@H](NC(=O)Cc2ccc(F)cc2)C3)c2ccc(C)c(Cl)c2)CC1` [Compound 7b, 1-acetyl-N-(3-chloro-4-methylphenyl)-N-(3-(3-exo-(2-(4-fluorphenyl)acetamido)-8-azabicyclo[3.2.1]oct-8-yl)propyl)-4-piperidinylcarboxamide], the IC50 stood at 31.1 nM. Regarding `CC(=O)N1CCC(C(=O)N(CCCN2[C@@H]3CC[C@H]2C[C@H](NC(=O)Cc2ccc(Cl)cc2)C3)c2ccc(C)c(Cl)c2)CC1` [Compound 7c, 1-acetyl-N-(3-chloro-4-methylphenyl)-N-(3-(3-exo-(2-(4-chlorphenyl)acetamido)-8-azabicyclo[3.2.1]oct-8-yl)propyl)-4-piperidinylcarboxamide], the IC50 was 15.1 nM. With `CC(=O)N1CCC(C(=O)N(CCCN2[C@@H]3CC[C@H]2C[C@H](NC(=O)Cc2ccc(C(F)(F)F)cc2)C3)c2ccc(C)c(Cl)c2)CC1` [Compound 7d, 1-acetyl-N-(3-chloro-4-methylphenyl)-N-(3-(3-exo-(2-(4-(trifluoromethyl)phenyl)acetamido)-8-azabicyclo[3.2.1]oct-8-yl)propyl)-4-piperidinylcarboxamide], the IC50 was 49.4 nM.

Regarding `CC(=O)N1CCC(C(=O)N(CCCN2C3CCC2CC(NC(=O)CC24CC5CC(CC(C5)C2)C4)C3)c2ccc(C)c(Cl)c2)CC1` (stereo not drawn) [Compound 7e, 1-acetyl-N-(3-chloro-4-methylphenyl)-N-(3-(3-exo-(2-(1-adamantyl)acetamido)-8-azabicyclo[3.2.1]oct-8-yl)propyl)-4-piperidinylcarboxamide], the IC50 worked out at 209 nM. Consider `CC(=O)N1CCC(C(=O)N(CCCN2[C@@H]3CC[C@H]2C[C@H](NC(=O)Cc2ccc([N+](=O)[O-])cc2)C3)c2ccc(C)c(Cl)c2)CC1` [Compound 7f, 1-acetyl-N-(3-chloro-4-methylphenyl)-N-(3-(3-exo-(2-(4-nitrophenyl)acetamido)-8-azabicyclo[3.2.1]oct-8-yl)propyl)-4-piperidinylcarboxamide], for which the IC50 was 20 nM. Same read-out and setting: the figure for `CC(=O)N1CCC(C(=O)N(CCCN2[C@@H]3CC[C@H]2C[C@H](NC(=O)Cc2ccc(O)cc2)C3)c2ccc(C)c(Cl)c2)CC1` [Compound 7g, 1-acetyl-N-(3-chloro-4-methylphenyl)-N-(3-(3-exo-(2-(4-hydroxyphenyl)acetamido)-8-azabicyclo[3.2.1]oct-8-yl)propyl)-4-piperidinylcarboxamide] is 48.2 nM; for `CC(=O)N1CCC(C(=O)N(CCCN2[C@@H]3CC[C@H]2C[C@H](NC(=O)Cc2ccc(Cl)c(Cl)c2)C3)c2ccc(C)c(Cl)c2)CC1` [Compound 7h, 1-acetyl-N-(3-chloro-4-methylphenyl)-N-(3-(3-exo-(2-(3,4-dichlorophenyl)acetamido)-8-azabicyclo[3.2.1]oct-8-yl)propyl)-4-piperidinylcarboxamide] it is 4.89 nM; for `CC(=O)N1CCC(C(=O)N(CCCN2[C@@H]3CC[C@H]2C[C@H](NC(=O)Cc2ccc(S(=O)(=O)N(C)C)cc2)C3)c2ccc(C)c(Cl)c2)CC1` [Compound 7j, 1-acetyl-N-(3-chloro-4-methylphenyl)-N-(3-(3-exo-(2-(4-(N,N-dimethylsulphonyl)phenyl)acetamido)-8-azadicyclo[3.2.1]oct-8-yl)propyl)-4-piperidinylcarboxamide] it is 3.08 nM.

Turning to `CC(=O)N1CCC(C(=O)N(CCCN2[C@@H]3CC[C@H]2C[C@H](NC(=O)Cc2ccc(S(C)(=O)=O)cc2)C3)c2ccc(C)c(Cl)c2)CC1` [Compound 7k, 1-acetyl-N-(3-chloro-4-methylphenyl)-N-(3-(3-exo-(2-(4-(methylsulphonyl)phenyl)acetamido)-8-azabicyclo[3.2.1]oct-8-yl)propyl)-4-piperidinylcarboxamide], the IC50 turned out to be 11.6 nM. Regarding `CC(=O)N1CCC(C(=O)N(CCCN2[C@@H]3CC[C@H]2C[C@H](NC(=O)Cc2ccc(S(=O)(=O)N4CCOCC4)cc2)C3)c2ccc(C)c(Cl)c2)CC1` [Compound 7l, 1-acetyl-N-(3-chloro-4-methylphenyl)-N-(3-(3-exo-(2-(4-(morpholinosulfonyl)phenyl)acetamido)-8-azabicyclo[3.2.1]oct-8-yl)propyl)-4-piperidinylcarboxamide], the IC50 is 3.46 nM. Turning to `CC(=O)N1CCC(C(=O)N(CCCN2[C@@H]3CC[C@H]2C[C@H](NC(=O)Cc2ccc(S(=O)(=O)NC(C)(C)C)cc2)C3)c2ccc(C)c(Cl)c2)CC1` [Compound 7m, 1-acetyl-N-(3-(3-exo-(2-(4-(N-tert-butylsulphonyl)phenyl)acetamido)-8-azabicyclo[3.2.1]oct-8-yl)propyl)-N-(3-chloro-4-methylphenyl)-4-piperidinylcarboxamide], the IC50 was 7.54 nM. `CC(=O)N1CCC(C(=O)N(CCCN2[C@@H]3CC[C@H]2C[C@H](NC(=O)Cc2cccc4ccccc24)C3)c2ccc(C)c(Cl)c2)CC1` [Compound 7n, 1-acetyl-N-(3-chloro-4-methylphenyl)-N-(3-(3-exo-(2-(1-naphthyl)acetamido)-8-azabicyclo[3.2.1]oct-8-yl)propyl)-4-piperidinylcarboxamide]: the IC50 was 4.75 nM. For the compound `CC(=O)N1CCC(C(=O)N(CCCN2[C@@H]3CC[C@H]2C[C@H](NC(=O)Cc2ccc4ccccc4c2)C3)c2ccc(C)c(Cl)c2)CC1` [Compound 7o, 1-acetyl-N-(3-chloro-4-methylphenyl)-N-(3-(3-exo-(2-(2-naphthyl)acetamido)-8-azabicyclo[3.2.1]-oct-8-yl)propyl)-4-piperidinylcarboxamide], the IC50 is 697 nM. In the case of `CC(=O)N1CCC(C(=O)N(CCCN2C3CCC2CC(NC(=O)C(O)c2ccccc2)C3)c2ccc(C)c(Cl)c2)CC1` (stereo not drawn) [Compound 7p, 1-acetyl-N-(3-chloro-4-methylphenyl)-N-(3-(3-exo-(2-hydroxyl-2-phenylacetamido)-8-azabicyclo[3.2.1]oct-8-yl)propyl)-4-piperidinylcarboxamide], the IC50 came to 51.5 nM. Same read-out and setting: the figure for `CC(=O)N1CCC(C(=O)N(CCCN2[C@@H]3CC[C@H]2C[C@H](NC(=O)Cc2c[nH]c4ccccc24)C3)c2ccc(C)c(Cl)c2)CC1` [Compound 7q, N-(3-(3-exo-(2-(3-indolyl)acetamido)-8-azabicyclo[3.2.1]oct-8-yl)propyl)-1-acetyl-N-(3-chloro-4-methylphenyl)-4-piperidinylcarboxamide] is 82 nM; for `COc1cc(CC(=O)N[C@@H]2C[C@H]3CC[C@@H](C2)N3CCCN(C(=O)C2CCN(C(C)=O)CC2)c2ccc(C)c(Cl)c2)cc(OC)c1OC` [Compound 7r, 1-acetyl-N-(3-chloro-4-methylphenyl)-N-(3-(3-exo-(2-(3,4,5-trimethoxylphenyl)acetamido)-8-azabicyclo[3.2.1]oct-8-yl)propyl)-4-piperidinylcarboxamide] it is 20.3 nM.

Usually IC50 stands for the point on the concentration scale where inhibition reaches its midpoint. Usually inhibition stands for the share of the control response that was lost under treatment.
